Reference: patent publication US20120258980A1, “Antibacterial Agent for Drug-Resistant Bacteria, Method for Screening for Same, and Use of Same” (priority 2009, published 2012)

Test system: VISA clinical isolates of MRSA (VI-MRSA) and of MSSA (VI-MSSA)
Assay: microbe, parasite or virus in culture
Format: cell-based, Staphylococcus aureus
Procedure: Each of the bacterial strains listed in Table 1-1 was shake-cultured at 37° C. overnight in 4 mL of a medium (Tryptical Soy Broth: TSB, product of Becton Dickinson and Company). FDA209P was used as a control.
After completion of culturing, the resultant culture was suspended in a cation-adjusted Mueller Hinton Broth (CAMHB, product of Becton Dickinson and Company). Then, the obtained bacterial culture was adjusted in absorbance with the CAMHB so that the absorbance at 578 nm of the bacterial culture was adjusted to 0.3 measured by an absorption spectrometer. In addition, the resultant bacterial culture was 500-fold diluted with the CAMHB.
Each of the 500-fold diluted, pre-cultured bacterial cultures was added at 50 μL/well to the CAMHB containing the quinolones and the nybomycins at various concentrations (50 μL/well), followed by statically culturing at 37° C. overnight.
After completion of culturing, the growth of the bacteria was visually determined based on turbidity to measure MIC in each bacterial strain.
Here, the glycopeptides used were VCM and TEIC. The β-lactam used was OXA.

[1] = Staphylococcus aureus, 99/3700-W, VI-MRSA, The United Kingdom
[2] = Staphylococcus aureus, 99/3759-V, VI-MRSA, The United Kingdom
[3] = Staphylococcus aureus, 28160, VI-MRSA, South African Republic
[4] = Staphylococcus aureus, 98141, VI-MRSA, France
[5] = Staphylococcus aureus, A7 (JCSC4842), VI-MRSA, Taiwan
[6] = Staphylococcus aureus, AMC11094, VI-MRSA, Korea
[7] = Staphylococcus aureus, B7 (JCSC4852), VI-MRSA, Taiwan
[8] = Staphylococcus aureus, BR1, VI-MRSA, Brazil
[9] = Staphylococcus aureus, BR2, VI-MRSA, Brazil
[10] = Staphylococcus aureus, BR3, VI-MRSA, Brazil
[11] = Staphylococcus aureus, BR4, VI-MRSA, Brazil
[12] = Staphylococcus aureus, BR5, VI-MRSA, Brazil
[13] = Staphylococcus aureus, HIP06297, VI-MRSA, America
[14] = Staphylococcus aureus, HIP06854, VI-MRSA, America
[15] = Staphylococcus aureus, HIP07920, VI-MRSA, America
[16] = Staphylococcus aureus, HIP07930, VI-MRSA, America
[17] = Staphylococcus aureus, HIP08926, VI-MRSA, America
[18] = Staphylococcus aureus, HIP09143, VI-MRSA, America
[19] = Staphylococcus aureus, HIP09313, VI-MRSA, America
[20] = Staphylococcus aureus, HIP09433, VI-MRSA, America
[21] = Staphylococcus aureus, HIP09662, VI-MRSA, America
[22] = Staphylococcus aureus, HIP09735, VI-MRSA, America
[23] = Staphylococcus aureus, HIP09737, VI-MSSA, America
[24] = Staphylococcus aureus, HIP09740, VI-MRSA, America
[25] = Staphylococcus aureus, HIP10267, VI-MRSA, America
[26] = Staphylococcus aureus, HIP10540, VI-MRSA, America
[27] = Staphylococcus aureus, HIP12864, VI-MRSA, America
[28] = Staphylococcus aureus, HIP13036, VI-MRSA, America
[29] = Staphylococcus aureus, HIP13057, VI-MRSA, America
[30] = Staphylococcus aureus, IL (HIP7737), VI-MRSA, America
[31] = Staphylococcus aureus, JCSC7193, VI-MRSA, Thailand
[32] = Staphylococcus aureus, JCSC7195, VI-MRSA, Thailand
[33] = Staphylococcus aureus, JCSC7203, VI-MRSA, Thailand
[34] = Staphylococcus aureus, LIM2, VI-MRSA, France
[35] = Staphylococcus aureus, LY-1999-01, VI-MSSA, Oman
[36] = Staphylococcus aureus, LY-1999-03, VI-MRSA, Oman
[37] = Staphylococcus aureus, MI (HIP5827), VI-MRSA, America
[38] = Staphylococcus aureus, MRSA / MSSA / NRS 76 / VISA, NRS76, VI-MSSA, America
[39] = Staphylococcus aureus, MRSA / MSSA / NRS 79 / VISA, NRS79, VI-MRSA, America
[40] = Staphylococcus aureus, MRSA / MSSA / NRS 118 / VISA, NRS118, VI-MRSA, America
[41] = Staphylococcus aureus, MRSA / MSSA / NRS 126 / VISA, NRS126, VI-MRSA, America
[42] = Staphylococcus aureus, Mu3, VI-MRSA, Japan
[43] = Staphylococcus aureus, Mu50, VI-MRSA, Japan
[44] = Staphylococcus aureus, NJ (HIP5836), VI-MRSA, America
[45] = Staphylococcus aureus, P1V44, VI-MSSA, Belgium
[46] = Staphylococcus aureus, PC, VI-MRSA, America
[47] = Staphylococcus aureus, SA MER-S6, VI-MSSA, France
[48] = Staphylococcus aureus, SA MER-S12, VI-MSSA, France
[49] = Staphylococcus aureus, SA MER-S20, VI-MSSA, France

Measured: MIC

Cc1cc(=O)n2c3c(c4c(cc13)c(CO)cc(=O)n4C)OC2 [NM, nybomycin]
0.5 µg/mL: [2] | [3] | [4] | [8] | [13] | [19] | [27] | [28] | [34] | [37] | [41] | [42] | [44]
≤ 0.063 µg/mL: [7] | [36]
2 µg/mL: [25]
64 µg/mL: [47] | [48]
0.33 µg/mL: [31] | [32]
1 µg/mL: [6] | [14] | [16] | [20] | [21] | [23] | [30] | [39] | [45] | [46]
0.16 µg/mL: [33]
> 64 µg/mL: [49]
0.125 µg/mL: [5] | [35]
0.25 µg/mL: [1] | [9] | [10] | [11] | [12] | [15] | [17] | [18] | [22] | [24] | [26] | [29] | [38] | [40] | [43]

CC1COc2c(N3CCN(C)CC3)c(F)cc3c(=O)c(C(=O)O)cn1c23 (centres unmarked) [OFLX, ofloxacin]
32 µg/mL: [2] | [16] | [21] | [22] | [26] | [29]
128 µg/mL: [6] | [30] | [37] | [39]
8 µg/mL: [28] | [35] | [36]
4 µg/mL: [45]
0.25 µg/mL: [49]
64 µg/mL: [3] | [8] | [9] | [10] | [11] | [12] | [18] | [20] | [23] | [24] | [25] | [27] | [32] | [34] | [38] | [40] | [44]
1 µg/mL: [47]
16 µg/mL: [1] | [4] | [5] | [7] | [13] | [14] | [15] | [17] | [19] | [31] | [33] | [41] | [42] | [43] | [46]
0.5 µg/mL: [48]
